{
  "source": "patent US9040545B2",
  "about": "“Heterocyclyl pyrazolopyrimidine analogues as selective JAK inhibitors” (Cellzome Limited, priority 2010, dated 2015)",
  "target": "T1, Aurora A (Homo sapiens, UniProt O14965)",
  "T1 construct": "cell lysates from Jurkat cells (ATCC TIB-152) used; endogenous in cells; host or cells: Jurkat cells (ATCC TIB-152), treated with pervanadate",
  "T1 sequence (O14965 1-403)": "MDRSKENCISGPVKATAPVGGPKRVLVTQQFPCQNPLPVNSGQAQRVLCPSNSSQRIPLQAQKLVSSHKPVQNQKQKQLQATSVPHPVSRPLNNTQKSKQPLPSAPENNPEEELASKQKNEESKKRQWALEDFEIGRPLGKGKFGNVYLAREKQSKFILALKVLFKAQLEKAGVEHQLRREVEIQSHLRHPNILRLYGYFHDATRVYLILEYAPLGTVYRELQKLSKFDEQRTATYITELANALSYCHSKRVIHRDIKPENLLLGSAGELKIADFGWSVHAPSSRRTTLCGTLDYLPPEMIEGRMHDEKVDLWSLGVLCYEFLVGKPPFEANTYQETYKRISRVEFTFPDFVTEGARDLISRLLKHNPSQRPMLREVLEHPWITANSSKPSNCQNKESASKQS",
  "experiment": "Kinobeads assay, Aurora A",
  "assay_type": "binding",
  "settings": "for IC50: lysate of pervanadate-treated Jurkat cells, read-out: Inhibition values (IC50) Aur A",
  "data": [
    {"smiles": "O=C(Cn1cc(Nc2ncc3cnn(Cc4cc(F)cc(N5CCOCC5=O)c4)c3n2)cn1)N1CCNCC1", "note": "[Example 109, 4-(3-fluoro-5-((6-((1-(2-oxo-2-(piperazin-1-yl)ethyl)-1H-pyrazol-4-yl)amino)-1H-pyrazolo[3,4-d]pyrimidin-1-yl)methyl)phenyl)morpholin-3-one]", "values": [
      {"measurement": "JAK3/AurA Fold Selectivity", "result": "3-10 Fold"},
      {"measurement": "IC50", "result": "< 100", "unit": "nM"}
    ]},
    {"smiles": "Cn1cc(Nc2ncc3cnn(Cc4c(F)c(F)cc(C(=O)N5CCOCC5)c4F)c3n2)cn1", "note": "[Example 110, morpholino(2,4,5-trifluoro-3-((6-((1-methyl-1H-pyrazol-4-yl)amino)-1H-pyrazolo[3,4-d]pyrimidin-1-yl)methyl)phenyl)methanone]", "values": [
      {"measurement": "JAK3/AurA Fold Selectivity", "result": ">50", "unit": "Fold"},
      {"measurement": "IC50", "result": "1000 to 10000", "unit": "nM"}
    ]},
    {"smiles": "O=C(c1cc(F)c(F)c(Cn2ncc3cnc(Nc4cnn(CCO)c4)nc32)c1F)N1CCOCC1", "note": "[Example 111, morpholino(2,4,5-trifluoro-3-((6-((1-(2-hydroxyethyl)-1H-pyrazol-4-yl)amino)-1H-pyrazolo[3,4-d]pyrimidin-1-yl)methyl)phenyl)methanone]", "values": [
      {"measurement": "JAK3/AurA Fold Selectivity", "result": "10-50 Fold"},
      {"measurement": "IC50", "result": "100 to 1000", "unit": "nM"}
    ]},
    {"smiles": "C[C@H]1COCCN1c1cccc(Cn2ncc3cnc(Nc4cnn(C)c4)nc32)c1", "note": "[Example 112, (S)-N-(1-methyl-1H-pyrazol-4-yl)-1-(3-(3-methylmorpholino)benzyl)-1H-pyrazolo[3,4-d]pyrimidin-6-amine]", "values": [
      {"measurement": "JAK3/AurA Fold Selectivity", "result": "10-50 Fold"},
      {"measurement": "IC50", "result": "100 to 1000", "unit": "nM"}
    ]},
    {"smiles": "C[C@@H]1COCCN1c1cccc(Cn2ncc3cnc(Nc4cnn(C)c4)nc32)c1", "note": "[Example 113, (R)-N-(1-methyl-1H-pyrazol-4-yl)-1-(3-(3-methylmorpholino)benzyl)-1H-pyrazolo[3,4-d]pyrimidin-6-amine]", "values": [
      {"measurement": "JAK3/AurA Fold Selectivity", "result": ">50", "unit": "Fold"},
      {"measurement": "IC50", "result": "1000 to 10000", "unit": "nM"}
    ]},
    {"smiles": "Cn1cc(Nc2ncc3cnn(Cc4cccc(NC5COC5)c4)c3n2)cn1", "note": "[Example 114, N-(1-methyl-1H-pyrazol-4-yl)-1-(3-(oxetan-3-ylamino)benzyl)-1H-pyrazolo[3,4-d]pyrimidin-6-amine]", "values": [
      {"measurement": "JAK3/AurA Fold Selectivity", "result": "3-10 Fold"},
      {"measurement": "IC50", "result": "< 100", "unit": "nM"}
    ]},
    {"smiles": "Cn1cc(Nc2ncc3cnn(Cc4cccc(-c5cnn(C)c5)c4)c3n2)cn1", "note": "[Example 115, N-(1-methyl-1H-pyrazol-4-yl)-1-(3-(1-methyl-1H-pyrazol-4-yl)benzyl)-1H-pyrazolo[3,4-d]pyrimidin-6-amine]", "values": [
      {"measurement": "JAK3/AurA Fold Selectivity", "result": "10-50 Fold"},
      {"measurement": "IC50", "result": "100 to 1000", "unit": "nM"}
    ]},
    {"smiles": "CCn1cc(-c2cccc(Cn3ncc4cnc(Nc5cnn(C)c5)nc43)c2)cn1", "note": "[Example 116, 1-(3-(1-ethyl-1H-pyrazol-4-yl)benzyl)-N-(1-methyl-1H-pyrazol-4-yl)-1H-pyrazolo[3,4-d]pyrimidin-6-amine]", "values": [
      {"measurement": "JAK3/AurA Fold Selectivity", "result": "10-50 Fold"},
      {"measurement": "IC50", "result": "100 to 1000", "unit": "nM"}
    ]},
    {"smiles": "CC(C)n1cc(-c2cccc(Cn3ncc4cnc(Nc5cnn(C)c5)nc43)c2)cn1", "note": "[Example 117, 1-(3-(1-isopropyl-1H-pyrazol-4-yl)benzyl)-N-(1-methyl-1H-pyrazol-4-yl)-1H-pyrazolo[3,4-d]pyrimidin-6-amine]", "values": [
      {"measurement": "JAK3/AurA Fold Selectivity", "result": "3-10 Fold"},
      {"measurement": "IC50", "result": "100 to 1000", "unit": "nM"}
    ]},
    {"smiles": "Cn1cc(Nc2ncc3cnn(Cc4cccc(-c5cn[nH]c5)c4)c3n2)cn1", "note": "[Example 118, 1-(3-(1H-pyrazol-4-yl)benzyl)-N-(1-methyl-1H-pyrazol-4-yl)-1H-pyrazolo[3,4-d]pyrimidin-6-amine]", "values": [
      {"measurement": "JAK3/AurA Fold Selectivity", "result": "10-50 Fold"},
      {"measurement": "IC50", "result": "1000 to 10000", "unit": "nM"}
    ]},
    {"smiles": "CCCn1cc(-c2cccc(Cn3ncc4cnc(Nc5cnn(C)c5)nc43)c2)cn1", "note": "[Example 119, N-(1-methyl-1H-pyrazol-4-yl)-1-(3-(1-propyl-1H-pyrazol-4-yl)benzyl)-1H-pyrazolo[3,4-d]pyrimidin-6-amine]", "values": [
      {"measurement": "JAK3/AurA Fold Selectivity", "result": "10-50 Fold"},
      {"measurement": "IC50", "result": "1000 to 10000", "unit": "nM"}
    ]},
    {"smiles": "Cn1cc(Nc2ncc3cnn(Cc4cccc(-c5cnn(CC(N)=O)c5)c4)c3n2)cn1", "note": "[Example 120, 2-(4-(3-((6-((1-methyl-1H-pyrazol-4-yl)amino)-1H-pyrazolo[3,4-d]pyrimidin-1-yl)methyl)phenyl)-1H-pyrazol-1-yl)acetamide]", "values": [
      {"measurement": "JAK3/AurA Fold Selectivity", "result": "10-50 Fold"},
      {"measurement": "IC50", "result": "100 to 1000", "unit": "nM"}
    ]}
  ]
}
